Source: PubChem BioAssay AID1259411 (Chemical Carcinogenesis Research Information System (CCRIS), 2018)
Activity calls are given as the source filed them. How the calls were made is not given here.

Test system: rodent carcinogenicity bioassays, tumor incidence
Assay: CCRIS carcinogenicity studies
Settings: Dose: 0, Dose: 0
From the text: The CCRIS database contains chemical records with carcinogenicity, mutagenicity, tumor promotion, and tumor inhibition test results. It was developed by the National Cancer Institute (NCI). Data are derived from studies cited in primary journals, current awareness tools, NCI reports, and other sources. Test results have been reviewed by experts in carcinogenesis and mutagenesis.
CCRIS provides historical information from the years 1985 - 2011. It is no longer updated.
This is an archive assay for CCRIS carcinogenicity studies.

## CCCCNC(=O)n1c(NC(=O)OC)nc2ccccc21
Species: Mouse, Strain/Sex: CD-1/Female (80/group), Route: Oral, 500, 1500, 7500 for 37 wk reduced to 5000 ppm in feed for 2 yr, 500, 1500, 7500 for 37 wk reduced to 5000 ppm in feed for 2 yr, Tumor Site: Type of Lesion: Liver: Hepatocellular adenoma (2/64, 2/60, 7/73, 7/68), Hepatocellular carcinoma (2/64, 7/60, 6/73, 14/68), Combined (4/, Tumor Site: Type of Lesion: Liver: Hepatocellular adenoma (2/64, 2/60, 7/73, 7/68), Hepatocellular carcinoma (2/64, 7/60, 6/73, 14/68), Combined (4/
  carcinogen call: active; positive; purity 99%; additional study details in california epa department of p
Species: Mouse, Strain/Sex: CD-1/Male (80/group), Route: Oral, 500, 1500, 7500 for 37 wk reduced to 5000 ppm in feed for 2 yr, 500, 1500, 7500 for 37 wk reduced to 5000 ppm in feed for 2 yr, Tumor Site: Type of Lesion: Liver: Hepatocellular adenoma (9/60, 9/75, 11/73, 10/76), Hepatocellular carcinoma (16/60, 26/75, 41/73, 17/76), Combine, Tumor Site: Type of Lesion: Liver: Hepatocellular adenoma (9/60, 9/75, 11/73, 10/76), Hepatocellular carcinoma (16/60, 26/75, 41/73, 17/76), Combine
  carcinogen call: active; positive; purity 99%; additional study details in california epa department of p

## Nc1ccccc1
Species: MOUSE, Strain/Sex: B6C3F1/FEMALE, Route: ORAL, 0.6, 1.2% OF DIET, 0.6, 1.2% OF DIET
  carcinogen call: inactive; negative
Species: MOUSE, Strain/Sex: B6C3F1/MALE, Route: INTRAPERITONEAL, 0.15 UMOL/G ONCE IN SODIUM ACETATE BUFFER (STUDY DURATION: 10 MO)
  carcinogen call: inactive; negative
Species: MOUSE, Strain/Sex: B6C3F1/MALE, Route: ORAL, 0.6, 1.2% OF DIET, 0.6, 1.2% OF DIET
  carcinogen call: inactive; negative
Species: RAT, Strain/Sex: F344/FEMALE, Route: ORAL, 0.3, 0.6% OF DIET, 0.3, 0.6% OF DIET, Tumor Site: Type of Lesion: SPLEEN OR BODY CAVITIES (BOTH PLEURAL AND PERITONEAL): FIBROSARCOMA OR SARCOMA, NOS
  carcinogen call: active; positive
Species: RAT, Strain/Sex: F344/FEMALE, Route: ORAL, 3000, 6000 PPM IN DIET FOR 103 WK (STUDY DURATION: 108 WK), 3000, 6000 PPM IN DIET FOR 103 WK (STUDY DURATION: 108 WK), Tumor Site: Type of Lesion: SPLEEN OR PERITONEUM: SARCOMA
  carcinogen call: active; positive
Species: RAT, Strain/Sex: F344/MALE, Route: ORAL, 0.3, 0.6% OF DIET, 0.3, 0.6% OF DIET, Tumor Site: Type of Lesion: SPLEEN AND BODY CAVITIES (BOTH PLEURAL AND PERITONEAL): FIBROSARCOMA OR SARCOMA, NOS, HEMANGIOSARCOMA
  carcinogen call: active; positive
Species: RAT, Strain/Sex: F344/MALE, Route: ORAL, 3000, 6000 PPM IN DIET FOR 103 WK (STUDY DURATION: 108 WK), 3000, 6000 PPM IN DIET FOR 103 WK (STUDY DURATION: 108 WK), Tumor Site: Type of Lesion: SPLEEN OR PERITONEUM: SARCOMA
  carcinogen call: active; positive

## CCCCC(CC)COC(=O)c1ccccc1C(=O)OCC(CC)CCCC (centres undefined)
Species: MOUSE, Strain/Sex: B6C3F1/FEMALE, Route: ORAL, 3000, 6000 PPM IN DIET FOR 102-104 WK (STUDY DURATION: 102-104 WK), 3000, 6000 PPM IN DIET FOR 102-104 WK (STUDY DURATION: 102-104 WK), Tumor Site: Type of Lesion: LIVER: CARCINOMA, CARCINOMA OR ADENOMA
  carcinogen call: active; positive
Species: MOUSE, Strain/Sex: B6C3F1/FEMALE, Route: ORAL, 3000, 6000 PPM IN DIET FOR 103 WK (STUDY DURATION: 105 WK), 3000, 6000 PPM IN DIET FOR 103 WK (STUDY DURATION: 105 WK), Tumor Site: Type of Lesion: LIVER: HEPATOCELLULAR CARCINOMA
  carcinogen call: active; positive
Species: MOUSE, Strain/Sex: B6C3F1/MALE, Route: ORAL, 3000, 6000 PPM IN DIET FOR 102-104 WK (STUDY DURATION: 102-104 WK), 3000, 6000 PPM IN DIET FOR 102-104 WK (STUDY DURATION: 102-104 WK), Tumor Site: Type of Lesion: LIVER: CARCINOMA, CARCINOMA OR ADENOMA
  carcinogen call: active; positive
Species: MOUSE, Strain/Sex: B6C3F1/MALE, Route: ORAL, 3000, 6000 PPM IN DIET FOR 103 WK (STUDY DURATION: 104-105 WK), 3000, 6000 PPM IN DIET FOR 103 WK (STUDY DURATION: 104-105 WK), Tumor Site: Type of Lesion: LIVER: HEPATOCELLULAR CARCINOMA
  carcinogen call: active; positive
Species: RAT, Strain/Sex: F344/FEMALE, Route: ORAL, 6000, 12000 PPM IN DIET FOR 102-104 WK (STUDY DURATION: 102-104 WK), 6000, 12000 PPM IN DIET FOR 102-104 WK (STUDY DURATION: 102-104 WK), Tumor Site: Type of Lesion: LIVER: CARCINOMA, CARCINOMA OR ADENOMA
  carcinogen call: active; positive
Species: RAT, Strain/Sex: F344/FEMALE, Route: ORAL, 6000, 12000 PPM IN DIET FOR 103 WK (STUDY DURATION: 105 WK), 6000, 12000 PPM IN DIET FOR 103 WK (STUDY DURATION: 105 WK), Tumor Site: Type of Lesion: LIVER: HEPATOCELLULAR CARCINOMA, NEOPLASTIC NODULE
  carcinogen call: active; positive
Species: RAT, Strain/Sex: F344/MALE, Route: ORAL, 2% IN DIET FOR 78 WK (STUDY DURATION: 78 WK), Tumor Site: Type of Lesion: LIVER: NEOPLASM
  carcinogen call: active; positive
Species: RAT, Strain/Sex: F344/MALE, Route: ORAL, 2% IN DIET FOR 108 WK (STUDY DURATION: 108 WK), Tumor Site: Type of Lesion: LIVER: NEOPLASTIC NODULE OR HEPATOCELLULAR CARCINOMA
  carcinogen call: active; positive
Species: RAT, Strain/Sex: F344/MALE, Route: ORAL, 6000, 12000 PPM IN DIET FOR 102-104 WK (STUDY DURATION: 102-104 WK), 6000, 12000 PPM IN DIET FOR 102-104 WK (STUDY DURATION: 102-104 WK), Tumor Site: Type of Lesion: LIVER: CARCINOMA, CARCINOMA OR ADENOMA
  carcinogen call: active; positive
Species: RAT, Strain/Sex: F344/MALE, Route: ORAL, 6000, 12000 PPM IN DIET FOR 103 WK (STUDY DURATION: 104-105 WK), 6000, 12000 PPM IN DIET FOR 103 WK (STUDY DURATION: 104-105 WK), Tumor Site: Type of Lesion: LIVER: HEPATOCELLULAR CARCINOMA OR NEOPLASTIC NODULE
  carcinogen call: active; positive
Species: RAT, Strain/Sex: SPRAGUE-DAWLEY/MALE (31-167/GROUP), Route: ORAL, 30, 95, 300 MG/KG/D IN DIET UP TO 159 WK (STUDY DURATION: LIFE TIME), 30, 95, 300 MG/KG/D IN DIET UP TO 159 WK (STUDY DURATION: LIFE TIME), Tumor Site: Type of Lesion: TESTIS: LEYDIG CELL TUMORS
  carcinogen call: active; positive
Species: RAT, Strain/Sex: SPRAGUE-DAWLEY/MALE (31-167/GROUP), Route: ORAL, 30, 95, 300 MG/KG/D IN DIET UP TO 159 WK (STUDY DURATION: LIFETIME), 30, 95, 300 MG/KG/D IN DIET UP TO 159 WK (STUDY DURATION: LIFETIME), Tumor Site: Type of Lesion: LIVER: CHOLANGIOCELLULAR TUMORS, TESTIS: LEYDIG CELL TUMORS (SIGNIFICANT DOSE RELATED TREND, INCIDENCE COMPARED TO CONTR, Tumor Site: Type of Lesion: LIVER: CHOLANGIOCELLULAR TUMORS, TESTIS: LEYDIG CELL TUMORS (SIGNIFICANT DOSE RELATED TREND, INCIDENCE COMPARED TO CONTR
  carcinogen call: active; positive

## ClC(Cl)c1ccccc1
Species: RAT, Strain/Sex: F344/FEMALE, Route: ORAL, 0.1, 0.5, 2% IN FEED FOR 104 WK (STUDY DURATION: 104 WK), 0.1, 0.5, 2% IN FEED FOR 104 WK (STUDY DURATION: 104 WK)
  carcinogen call: inactive; negative
Species: RAT, Strain/Sex: F344/MALE, Route: ORAL, 0.1, 0.5, 2% IN FEED FOR 104 WK (STUDY DURATION: 104 WK), 0.1, 0.5, 2% IN FEED FOR 104 WK (STUDY DURATION: 104 WK)
  carcinogen call: inactive; negative

## CN(CCC(=O)O)N=O
Species: MOUSE, Strain/Sex: STRAIN-A/FEMALE, Route: INTRAPERITONEAL, 200 UMOL MOUSE (TOTAL DOSE) ADMINISTERED IN 0.1 ML SALINE 3/WK (TOTAL 20 INJECTIONS) (STUDY DURATION: 37 WK), Tumor Site: Type of Lesion: LUNG: ADENOCARCINOMA, ADENOMA
  carcinogen call: active; positive
